Where a name gives a salt, the structure may show the parent alone. Read-outs that look alike come from different tables or passages of the source.
What was measured:
Format in all cases: cell-based, human
[1] = system: HTT mRNA; test: Splicing RT-qPCR assay, HTT canonical (CJ) and alternative (AJ) junction mRNA; settings: Homo sapiens, A673 or K562 cells, 24 hours compound treatment; for IC50: 24 h, read-out: HTT CJ (IC50, decrease in canonical junction mRNA); for AC50: read-out: HTT AJ (AC50, increase in alternative junction mRNA)
Outline: (§1)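 Canonical (CJ) and alternative-exon (AJ) junction mRNAs quantified by one-step RT-qPCR in cell lysates, normalized to housekeeping PPIA for A673 and GAPDH or GUSB for K562. Cells were exposed 24 h at 37 °C to 11-point 3-fold compound series from 10 uM final, with DMSO at or below 0.25%.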

[2] = system: MYB mRNA; test: Splicing RT-qPCR assay, MYB canonical (CJ) and alternative (AJ) junction mRNA; settings: Homo sapiens; for AC50: read-out: MYB AJ (AC50, increase in alternative junction mRNA)
Outline: as §1

[3] = system: SMN2 mRNA; test: Splicing RT-qPCR gene panel, SMN2 canonical junction (CJ) mRNA; settings: Homo sapiens, Tables 4A/4B, read-out: SMN2 (IC50, decrease in CJ mRNA, gene panel)
Method: (§2) Compounds described herein were used to modulate RNA transcript abundance in cells. The expression of a target mRNA was measured by detecting the formation of an exon-exon junction in the canonical transcript (CJ). A compound mediated exon-inclusion event was detected by observing an increase in formation of a new junction with an alternative exon (AJ). Real-time qPCR assays were used to detect these splicing switches and interrogate the potency of various compounds towards different target genes. A high-throughput real time quantitative PCR (RT-qPCR) assay was developed to measure these two isoforms of the mRNA (CJ and AJ) for exemplary genes, such as HTT, SMN2, and MYB, together with a control housekeeping gene, GAPDH or GUSB or PPIA, used for normalization. Briefly, the A673 or K562 cell line was treated with various compounds described herein (e.g., compounds of Formula (I)). After treatment, the levels of the HTT, MYB, or SMN2 mRNA targets were determined from each sample of cell lysate by cDNA synthesis followed by qPCR.
(§3) The A673 cell line was cultured in DMEM with 10% FBS. Cells were diluted with full growth media and plated in a 96-well plate (15,000 cells in 100 ul media per well). The plate was incubated at 37° C. with 5% CO2 for 24 hours to allow cells to adhere. An 11-point 3-fold serial dilution of the compounds was made in DMSO then diluted in media in an intermediate plate. Compounds were transferred from the intermediate plate to the cell plate with the top dose at a final concentration of 10 uM in the well. Final DMSO concentration was kept at or below 0.25%. The cell plate was returned to the incubator at 37° C. with 5% CO2 for an additional 24 hours.
(§4) The K562 cell line was cultured in IMDM with 10% FBS. For K562, cells were diluted with full growth media and plated in either a 96-well plate (50,000 cells in 50 uL media per well) or a 384-well plate (8,000-40,000 cells in 45 uL media per well). An 11-point 3-fold serial dilution of the compounds were made in DMSO then diluted in media in an intermediate plate. Compound was transferred from the intermediate plate to the cell plate with the top dose at a final concentration of 10 uM in the well. Final DMSO concentration was kept at or below 0.25%. Final volume was 100 uL for 96-well plate and 50 uL for 384-well plate. The cell plate was then placed in an incubator at 37° C. with 5% CO2 for 24 hours.
(§5) The cells were then gently washed with 50 uL-100 uL cold PBS before proceeding to addition of lysis buffer. 30 uL-50 uL of room temperature lysis buffer with DNAse I (and optionally RNAsin) was added to each well. Cells were shaken/mixed thoroughly at room temperature for 5-10 minutes for lysis to take place and then 3 uL-5 uL of room temperature stop solution was added and wells were shaken/mixed again. After 2-5 minutes, the cell lysate plate was transferred to ice for RT-qPCR reaction setup. The lysates could also be frozen at −80° C. for later use.
(§6) In some cases, a direct lysis buffer was used. An appropriate volume of 3× lysis buffer (10 mM Tris, 150 mM NaCl, 1.5%-2.5% Igepal and 0.1-1 U/uL RNAsin, pH 7.4) was directly added to either K562 or A673 cells in media and mixed by pipetting 3 times. The plates were then incubated at room temperature with shaking/rocking for 20-50 minutes to allow for lysis to take place. After this time, the cell lysate plate was transferred to ice to set up for the RT-qPCR reactions. The lysates could also be frozen at −80° C. for later use.
(§7) To set up 10 uL RT-qPCR reactions, cell lysates were transferred to 384-well qPCR plates containing the master mix according to the table below. The plates were sealed, gently vortexed, and spun down before the run. The volumes were adjusted accordingly in some instances where the reaction was carried in 20 μL. The table below summarizes the components of the RT-qPCR reactions:
(§8) The RT-qPCR reaction was performed using a QuantStudio (ThermoFisher) under the following fast cycling conditions. […]

[4] = system: Target C mRNA; test: Splicing RT-qPCR gene panel, Target C canonical junction (CJ) mRNA; settings: Homo sapiens, Tables 4A/4B, read-out: Target C (IC50, decrease in CJ mRNA, gene panel)
Method: as §2, §3, §4, §5, §6, §7, §8

[5] = system: HTT mRNA; test: Splicing RT-qPCR gene panel, HTT canonical junction (CJ) mRNA; settings: Homo sapiens, Tables 4A/4B, read-out: HTT (IC50, decrease in CJ mRNA, gene panel)
Method: as §2, §3, §4, §5, §6, §7, §8

[6] = 24 h, A673 or K562 cells, 24 hours compound treatment, RT-qPCR
[7] = 24 h, A673 or K562 cells, 24 hours compound treatment, RT-qPCR, read-out: MYB CJ (IC50, decrease in canonical junction mRNA)
[8] = Tables 4A/4B, canonical junction qPCR panel, read-out: MYB (IC50, decrease in CJ mRNA, gene panel)

Structure (SMILES)	IC50 [1]	IC50 [2, 7]	IC50 [2, 8]	IC50 [3]	IC50 [4]	IC50 [5]	AC50 [1]	AC50 [2, 6]
Cc1cc2c(N3CCNCC3)ccc(C(=O)Nc3cc(F)c4nc(C)sc4c3)c2o1 [Compound 219]	> 10000 nM	100 to 1000 nM	100 to 1000 nM	100 to 1000 nM	> 10000 nM	> 10000 nM	> 10000 nM	1000 to 10000 nM
Cc1cc2c(N3CCNCC3)ccc(C(=O)Nc3ccc4cn(C)nc4c3)c2o1 [Compound 261]	> 10000 nM	> 10000 nM	> 10000 nM	1000 to 10000 nM	> 10000 nM	> 10000 nM	> 10000 nM	> 10000 nM
Cc1cn2cc(NC(=O)c3ccc(N4C[C@@H](C)N[C@@H](C)C4)c4cn(C)nc34)cc(F)c2n1 [Compound 326, 4-[(3R,5S)-3,5-dimethylpiperazin-1-yl]-N-{8-fluoro-2-methylimidazo[1,2-a]pyridin-6-yl}-2-methylindazole-7-carboxamide]	100 to 1000 nM	< 100 nM	< 100 nM	< 100 nM	1000 to 10000 nM	100 to 1000 nM	100 to 1000 nM	< 100 nM
Cc1cn2cc(NC(=O)c3ccc(N4CC5(CNC5)C4)c4cc(C)oc34)cc(F)c2n1 [Compound 205]	100 to 1000 nM	100 to 1000 nM	100 to 1000 nM	< 100 nM	1000 to 10000 nM	100 to 1000 nM	1000 to 10000 nM	100 to 1000 nM

The next lines start with results.

IC50 [1]	IC50 [2, 7]	IC50 [2, 8]	IC50 [3]	IC50 [4]	IC50 [5]	Structure (SMILES)	AC50 [1]	AC50 [2, 6]
< 100 nM	< 100 nM	< 100 nM	< 100 nM	100 to 1000 nM	< 100 nM	COc1c(NC(=O)c2ccc(N3CCNCC3)c3oc(C)nc23)cn2cc(C)nc2c1F [Compound 428, N-{8-fluoro-7-methoxy-2-methylimidazo[1,2-a]pyridin-6-yl}-2-methyl-7-(piperazin-1-yl)-1,3-benzoxazole-4-carboxamide]	< 100 nM	< 100 nM
> 10000 nM	> 10000 nM	> 10000 nM	> 10000 nM	> 10000 nM	> 10000 nM	COc1c(NC(=O)c2ccc(N3CCNCC3)c3cn(C)nc23)cc(C)c2nn(C)cc12 [Compound 456]	> 10000 nM	1000 to 10000 nM
> 10000 nM	1000 to 10000 nM	1000 to 10000 nM	100 to 1000 nM	> 10000 nM	> 10000 nM	Cc1cn2cc(NC(=O)c3ccc(N4CCNCC4)c4cn(CC(C)(C)O)nc34)cc(F)c2n1 [Compound 354, N-{8-fluoro-2-methylimidazo[1,2-a]pyridin-6-yl}-2-(2-hydroxy-2-methylpropyl)-4-(piperazin-1-yl)indazole-7-carboxamide]	> 10000 nM	1000 to 10000 nM
> 10000 nM	1000 to 10000 nM	1000 to 10000 nM	100 to 1000 nM	> 10000 nM	> 10000 nM	Cc1cn2cc(NC(=O)c3ccc(N4CCNCC4)c4cn(Cc5ccc6[nH]ncc6c5)nc34)cc(F)c2n1 [Compound 340, N-{8-fluoro-2-methylimidazo[1,2-a]pyridin-6-yl}-2-(1H-indazol-5-ylmethyl)-4-(piperazin-1-yl) indazole-7-carboxamide trifluoroacetate]	> 10000 nM	1000 to 10000 nM

From patent US20250154169A1, “COMPOUNDS AND METHODS FOR MODULATING SPLICING” (REMIX THERAPEUTICS INC., priority 2021, published 2025)
